In brackets after ≈: the same amount, converted by molar mass. Entries after “also recorded” stand apart in the source; their conditions may differ.
Legend:
[1] = Human liver microsomal Clint; assay type: in vitro ADME; conditions: for microsomal CLint: human liver microsomes, intrinsic clearance, read-out: HLM Clint
Rat hepatocyte Clint = assay type: in vitro ADME; conditions: rat hepatocytes, intrinsic clearance; read-out: RH CLint
[2] = Log D7.4 shake-flask octanol-water; assay type: physicochemical; conditions: pH 7.4
Description: Log D7.4. Shake-flask octanol-water distribution coefficient was determined at pH 7.4 (Log D7.4). The aqueous solution used is 10 mM sodium phosphate pH 7.4 buffer. The method has been validated for Log D7.4 ranging from -2 to 5.0.
Human Plasma Protein Binding (PPB). PPB was determined using equilibrium dialysis (RED device) to separate free from bound compound. The amount of compound in plasma (10 µM initial concentration) and in dialysis buffer (pH 7.4 phosphate buffer) was measured by LC-MS/MS after equilibration at 37 °C in a dialysis chamber. The fraction unbound (fu) is reported.
Human Liver Microsomal Clint. In vitro intrinsic clearance was determined from human liver microsomes using a standard approach.11 Following incubation and preparation, the samples were analyzed using […]
Rat Hepatocyte Clint. In vitro intrinsic clearance was determined from rat hepatocytes using a standard approach.11 Following incubation and preparation, the samples were analyzed using LC/MS/MS. Refined […]
Calculated LogP and LogD values. Both LogP and LogD predictions are based on a modified version of the method12 where the predicted partition coefficients are composed of the molecules’ atomic increments.
General Chemistry. All starting materials were commercially obtained and were used without further purification, unless specified. Reaction solvents were purified by passage through alumina columns on a purification system manufactured by Innovative Technology (Newburyport, MA). NMR spectra were obtained on Varian NMR systems, operating at 400 or 500 MHz for 1 H acquisitions. LCMS analysis was performed using a Waters AllianceHT e2795 reverse phase HPLC (Waters SunFire C18 4.6 × 50 mm, 3.5 μm column), with a Waters 2996 photodiode array detector scanning from 210 nm to 600 nm, and Waters Micromass ZQ detector (electrospray ionization). Where required, final compounds were purified by preparative reverse phase HPLC (columns Waters Symmetry RP8 30 × 50 mm, 5 μm column, or OBD RP18 30 × 50 mm, 5 μm), with a single wavelength UV−visible detector and Waters Micromass ZQ (electrospray ionization).

adult S. mansoni = assay: Phenotypic screen of adult S. mansoni worms, severity scores and descriptors; assay type: cell-based, Schistosoma mansoni; conditions: for Descriptors (10 µM) 1 h / Severity Scores (10 μM) 1 h / Severity Scores (10 μM) 5 h / Severity Scores (10 μM) 24 h / Descriptors (10 µM) 48 h / Severity Scores (10 μM) 48 h / Descriptors (10 µM) 5 h / Descriptors (10 µM) 24 h: adult S. mansoni; for Descriptors (10 µM) 1 h / Descriptors (10 µM) 48 h / Descriptors (10 µM) 5 h / Descriptors (10 µM) 24 h: phenotypic descriptors; for Severity Scores (10 μM) 1 h / Severity Scores (10 μM) 5 h / Severity Scores (10 μM) 24 h / Severity Scores (10 μM) 48 h: scale 0 (no activity) to 4 (maximal activity); for bioactivity against adult S. mansoni: adult schistosomes; for Severity Scores (10 μM) 1 h / Severity Scores (10 μM) 5 h / Severity Scores (10 μM) 24 h / Severity Scores (10 μM) 48 h / bioactivity against adult S. mansoni: 10 μM
Description: Because the schistosome parasite can present multiple and dynamic phenotypic responses to chemical insult,[16] we employ a constrained nomenclature of descriptors to describe the changes in the parasite as a function of time and concentration (e.g., motility, density, and shape; and in the case of the adult parasite, an inability to adhere to the bottom of the assay dish). These descriptors are converted into severity scores on a scale of 0 (green)–4 (severest/red) that allow for partially quantitative comparisons of compound effects.[1]−[19] […] The descriptors themselves and their respective scores are detailed in the Supporting Information, Table S1. Severity score data are presented in the results (with the corresponding descriptors detailed in the Supporting Information, Tables S2–S8), and eight new analogs developed and synthesized in support of this effort are described. Finally, absorption, distribution, metabolism and excretion (ADME) data of all compounds presented in this work are reported in the Supporting Information, Table S15.
Table S1. Descriptors and associated severity scores used for S. mansoni adults.
R (rounded or shape altered 1
On sides (adults unable to 1
Shrunk (adults are shorter 1
surface (tegument) of adults)
dfailed to create analytical method
Maintenance of the Schistosoma mansoni life cycle (NMRI isolate), the preparation of adult worms (≥ 42-
days-old), and their co-incubation with test compounds were as described.7-9 Phenotypic responses were
visually recorded using a constrained nomenclature and converted to severity scores on a scale from zero
(no activity) to 4 (maximal activity).8, 9 Use of hamsters for maintaining the S. mansoni life-cycle was
approved by the Institutional Animal Care and Use Committee of the University of California San Diego.
The human myelomonocytic cell line THP -1 was grown at 37 °C and 5% CO2 in RPMI-1640 supplemented
with 10% iFBS, 2 mM glutamate, 100 U/mL penicillin and […] streptomycin.
Drug toxicity to HepG2 cells .10 HepG2 cells line were obtained from the American Type Culture
Collection and cultured in Minimal Essential Medium (MEM) supplemented with 0.19% sodium
bicarbonate, 10% Fetal Bovine Serum, 2 mM L -glutamine, 0.1 mM MEM non-essential amino, 0.009
mg/mL insulin, 1.76 mg/mL bovine serum albumin. The viability of the cells was measured using the MTT
(thiazolyl blue reduction) method. Briefly, ninety -six-well plates were seeded with 2.5 × 10^4 cells/well in
170 ml of culture medium and incubated overnight in 5% CO 2 at 37 °C. Cells were exposed to different
experimental compounds in DMSO. After 48 hours incubation, the viability of the cells was assessed using
MTT (thiazolyl blue reduction) as a dose response assay (11 two -fold serial dilutions) to obtain a calculated
IC50 determination. 4-Azaindolo[2,1-b]quinazoline-6,12-dione is used as a toxicity positive control and
each assay plate includes the following 3 additional controls: a) background control: no cells and no drug
was added, b) target control: cells added but no drugs, and c) DMSO control: same as the target control
except the culture media contains 0.6% DMSO. Absorbance was determined in all wells using a Perkin
Elmer, Ensight plate reader. The fifty percent inhibitory concentrations (IC50’s) were determined using
GraphPad Prism nonlinear regr ession (sigmoidal dose -response, variable slope) equation .
ADME Experiment Protocols
Aqueous pH 7.4 Solubility. Compounds were dried down from 10 mM DMSO solutions using centrifugal
evaporation technique. Phosphate buffer (0.1 M pH 7.4) was added and StirStix were inserted in the glass
vials, with shaking then performed at a constant temperature of 25 °C for 20 -24 h. This step was followed
by double centrifugation with a tip wash in between, to ensure that no residues of the dried compounds
interfere. The solutions were diluted before analysis and quantification using LC/MS/MS was performed.

[3] = Aqueous pH 7.4 solubility; assay type: physicochemical; conditions: for solubility: aqueous buffer, thermodynamic from solid, phosphate buffer pH 7.4, 25 °C, 20-24 h, read-out: aq sol (aqueous solubility)
[4] = Human plasma protein binding (equilibrium dialysis); assay type: in vitro ADME; conditions: pH 7.4, 10 µM, 37 °C, read-out: human PPB (plasma protein binding) (converted)

Row | Compound | microsomal CLint [1] | hepatocyte CLint (Rat hepatocyte Clint) | logD [2] | Descriptors (10 µM) 1 h (adult S. mansoni) | Severity Scores (10 μM) 1 h (adult S. mansoni) | Severity Scores (10 μM) 5 h (adult S. mansoni) | Severity Scores (10 μM) 24 h (adult S. mansoni) | Descriptors (10 µM) 48 h (adult S. mansoni) | Severity Scores (10 μM) 48 h (adult S. mansoni) | bioactivity against adult S. mansoni (adult S. mansoni) | Descriptors (10 µM) 5 h (adult S. mansoni) | Descriptors (10 µM) 24 h (adult S. mansoni) | solubility [3] | decrease in aqueous solubility compared with 3 ([3]; relative to 3) | fraction unbound [4] | improved metabolic stability in comparison to 8a ([1]; relative to 8a)
1 | CCN1CCN(c2ncc(-c3ccc4c(Nc5cnccn5)ccnc4c3)cn2)CC1 [4b] | > 300 µL/min/mg | 45 µL/min/1e6 cells | 3.5 | none | 0 | 1 | 1 | S, on sides | 2 | activity after 5 h | – | – | – | – | – | –
2 | CCCN1CCCN(c2ncc(-c3ccc4c(Nc5cnccn5)ccnc4c3)cn2)CC1 [4f] | > 300 µL/min/mg | 32 µL/min/1e6 cells | 3.3 | none | 0 | 0 | 0 | none | 0 | – | none | none | – | – | – | –
3 | COc1ccc(Nc2ccnc3cc(-c4cnc(N5CCCN(C)CC5)nc4)ccc23)cc1Cl [5d] | 120 µL/min/mg | 9 µL/min/1e6 cells | 2.7 | – | 1 | 3 | 4 | – | 4 | severe phenotypic responses | – | – | 6 µM (≈ 2.85 µg/mL) | 7 fold | – | –
4 | c1cc(-c2ccc3c(c2)ncc2c4ccccc4[nH]c32)cc(N2CCOCC2)c1 [6a] | 57 µL/min/mg | 24 µL/min/1e6 cells | 5.1 | none | 0 | 1 | 0 | – | 1 | minimal bioactivity after 5 h | – | none | 0.1 µM (≈ 0.0379 µg/mL) | – | – | –
5 | CN1CCCN(c2ncc(-c3ccc4c(c3)ncc3c5ccccc5[nH]c43)cn2)CC1 [6b] | 110 µL/min/mg | 19 µL/min/1e6 cells | – | none | 0 | 1 | 1 | – | 4 | minimal bioactivity after 5 h; also recorded: potent activity after 48 h | – | – | 35 µM (≈ 14.3 µg/mL) | – | – | –
6 | CCN1CCCN(c2ncc(-c3cc4nccc(Nc5cnccn5)c4cc3C)cn2)CC1 [8c] | – | 32 µL/min/1e6 cells | 2.6 | none | 0 | 4 | 4 | – | 4 | – | – | – | – | – | 0.16 | –
7 | CCCN1CCCN(c2ncc(-c3cc4nccc(Nc5cnccn5)c4cc3C)cn2)CC1 [8d] | – | 35 µL/min/1e6 cells | 3.2 | – | 1 | 1 | 3 | – | 3 | bioactivity being detected after 1 h | – | – | – | – | 0.12 | –
8 | Cc1cc2c(Nc3cnccn3)ccnc2cc1-c1cnc(N2CCCNCC2)nc1 [8e] | – | < 1 µL/min/1e6 cells | 2.3 | none | 0 | 0 | 0 | none | 0 | inactive against schistosomes | none | none | – | – | 0.3 | 10 fold
9 | Cc1c(-c2cnc(N3CCCN(C)CC3)nc2)ccc2c(Nc3cnccn3)ccnc12 [9b] | – | 27 µL/min/1e6 cells | 2.5 | none | 0 | 0 | 0 | none | 0 | no bioactivity | none | none | – | – | 0.18 | –
10 | CCN1CCCN(c2ncc(-c3ccc4c(Nc5cnccn5)ccnc4c3C)cn2)CC1 [9c] | – | 21 µL/min/1e6 cells | – | none | 0 | 0 | 0 | none | 0 | no bioactivity | none | none | – | – | 0.12 | –
11 | CCCN1CCCN(c2ncc(-c3ccc4c(Nc5cnccn5)ccnc4c3C)cn2)CC1 [9d] | – | 36 µL/min/1e6 cells | 3.3 | – | 1 | 1 | 4 | Unc, deg | 4 | strongly bioactive by 24 h | – | Unc, deg | – | – | 0.06 | –
12 | Cc1c(-c2cnc(N3CCCNCC3)nc2)ccc2c(Nc3cnccn3)ccnc12 [9e] | – | 5.3 µL/min/1e6 cells | 1.6 | – | 0 | 2 | 4 | – | 4 | phenotypic response after 5 h | – | – | – | – | 0.24 | –

From article PMC7073886, “Structure–Bioactivity Relationships of Lapatinib Derived Analogs against Schistosoma mansoni” (ACS Medicinal Chemistry Letters, 2020)
